Measured values: patent publication US20240059698A1 (Accutar Biotechnology Inc., priority 2022, published 2024)

Assays:
Assay type in all cases: cell-based
HCC827 cells = test: Cell growth inhibition (CellTiter-Glo), HCC827; conditions: Homo sapiens, 72 h, 3 days
Method in brief: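 Readout was CellTiter-Glo luminescence after 3-day compound treatment at 37° C. Cells were seeded at 5000/well the previous night: HCC827 in RPMI/10% FBS, A431 in DMEM/10% FBS.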

[1] = test system: HCC827-SVD cells (human EGFR exon 20 insertion mutant D770_N771insSVD); test: Cell growth inhibition (CellTiter-Glo), HCC827-SVD; conditions: 72 h, 3 days
Method in brief: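 Growth read by CellTiter-Glo luminescence after 3-day compound exposure at 37 °C. Engineered clonal HCC827 line (native EGFR deleted by CRISPR, mutant EGFR re-expressed) plated at 5000 cells/well in 10% FBS RPMI the night before dosing.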

[2] = test system: HCC827-YVMA cells (human ERBB2 exon20 insertion mutant A775_G776ins YVMA); test: Cell growth inhibition (CellTiter-Glo), HCC827-YVMA; conditions: 72 h, HCC827-YVMA cells, 3 days, CellTiter-Glo, read-out: Cell growth inhibition, GI50 (nM) HCC827-YVMA
Method in brief: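 Growth in RPMI with 10% FBS was measured by CellTiter-Glo luminescence after 3 days at 37 °C with test compounds across a concentration range. The single-clone HCC827 lines carry a lentiviral YVMA (ERBB2) or ASV (EGFR) exon 20 insertion, with endogenous EGFR removed via sgRNA/Cas9.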

A431 cells = test: Cell growth inhibition (CellTiter-Glo), A431; conditions: Homo sapiens, A-431, 72 h, 3 days
Protocol: 2. Cell Growth Inhibition for HCC827, HCC827-SVD, HCC827-ASV, HCC827-YVMA, and A431.
HCC827(ATCC), HCC827-SVD, HCC827-ASV, and HCC827-YVMA cells were seeded in 96-well plates at 5000 cells/well in 90 μL of RPMI growth medium containing 10% FBS and 1% Penicillin Streptomycin. A431 (ATCC) cells were seeded in 96-well plates at 5000 cells/well in 90 μL of DMEM growth medium containing 10% FBS and 1% Penicillin Streptomycin. Cells were incubated at 37° C. overnight and then administered with 10 μL 10× test compounds prepared in the growth medium at various concentrations. After administration of the compounds, cells were incubated at 37° C. for 3 days. Before the CellTiter-Glo assay, the plates were equilibrated at room temperature for approximately 30 minutes. 100 ul of CellTiter-Glo reagent (Promega) was added to each well. The plates were then incubated at room temperature for 10 minutes and luminescence was recorded by the EnSight® multimode plate reader (PerkinElmer). Table 7 listed selected compounds in cellular growth assay.

Row | Compound | GI50 (HCC827 cells) [nM] | GI50 [1] [nM] | GI50 [2] [nM] | GI50 (A431 cells) [nM]
1 | C=CC(=O)N1CCC(c2ccn3ncnc(Nc4ccc(Oc5nc(-c6ccnn6C)cs5)cc4F)c23)CC1 [Compound 207, 1-(4-(4-((2-fluoro-4-((4-(1-methyl-1H-pyrazol-5-yl)thiazol-2-yl)oxy)phenyl)amino)pyrrolo[2,1-f][1,2,4]triazin-5-yl)piperidin-1-yl)prop-2-en-1-one] | > 1000 | 200 to 1000 | 50 to 200 | > 1000
2 | C=CC(=O)N1CCC(c2n[nH]c3ncnc(Nc4ccc(O[C@H]5CCCN(S(=O)(=O)c6ccc(OC)nc6)C5)cc4F)c23)CC1 [Compound 187, (S)-1-(4-(4-((2-fluoro-4-((1-((6-methoxypyridin-3-yl)sulfonyl)piperidin-3-yl)oxy)phenyl)amino)-1H-pyrazolo[3,4-d]pyrimidin-3-yl)piperidin-1-yl)prop-2-en-1-one] | 200 to 1000 | 200 to 1000 | 200 to 1000 | > 1000
3 | C=CC(=O)N1CCC(c2c[nH]c3ncnc(Nc4ccc(Oc5nc(-c6cnc(OC)nc6)cs5)cc4F)c23)CC1 [Compound 149, 1-(4-(4-((2-fluoro-4-((4-(2-methoxypyrimidin-5-yl)thiazol-2-yl)oxy)phenyl)amino)-7H-pyrrolo[2,3-d]pyrimidin-5-yl)piperidin-1-yl)prop-2-en-1-one] | > 1000 | 50 to 200 | 50 to 200 | > 1000
4 | C=CC(=O)N1CCC(c2c[nH]c3ncnc(Nc4ccc(Oc5ccnc(N6CCOC(C)C6)c5)cc4F)c23)CC1 (stereo in doubt) [Compound 141, (S)-1-(4-(4-((2-fluoro-4-((2-(2-methylmorpholino)pyridin-4-yl)oxy)phenyl)amino)-7H-pyrrolo[2,3-d]pyrimidin-5-yl)piperidin-1-yl)prop-2-en-1-one] | > 1000 | 50 to 200 | 50 to 200 | > 1000
5 | C=CC(=O)N1CCC(c2n[nH]c3ncnc(Nc4ccc(Oc5ccnc(N6CCO[C@H](C)C6)c5)cc4F)c23)CC1 [Compound 172, (R)-1-(4-(4-((2-fluoro-4-((2-(2-methylmorpholino)pyridin-4-yl)oxy)phenyl)amino)-1H-pyrazolo[3,4-d]pyrimidin-3-yl)piperidin-1-yl)prop-2-en-1-one] | 200 to 1000 | 50 to 200 | 50 to 200 | > 1000
6 | C=CC(=O)N1CCC(c2n[nH]c3ncnc(Nc4ccc(Oc5ccnc(N6CCC(C#N)C6)c5)cc4F)c23)CC1 (stereo not shown) [Compound 179, 1-(4-(4-((3-(1-acryloylpiperidin-4-yl)-1H-pyrazolo[3,4-d]pyrimidin-4-yl)amino)-3-fluorophenoxy)pyridin-2-yl)pyrrolidine-3-carbonitrile] | > 1000 | 200 to 1000 | 200 to 1000 | > 1000
7 | C=CC(=O)N1CCC(c2ccn3ncnc(Nc4ccc(Oc5ccnc(N6CCC(C#N)C6)c5)cc4F)c23)CC1 (stereo not shown) [Compound 204, 1-(4-(4-((5-(1-acryloylpiperidin-4-yl)pyrrolo[2,1-f][1,2,4]triazin-4-yl)amino)-3-fluorophenoxy)pyridin-2-yl)pyrrolidine-3-carbonitrile] | > 1000 | 50 to 200 | 50 to 200 | > 1000
8 | C=CC(=O)N1CCC(c2c[nH]c3ncnc(Nc4ccc(Oc5ccnc(NC6CCOCC6)c5)cc4F)c23)CC1 [Compound 146, 1-(4-(4-((2-fluoro-4-((2-((tetrahydro-2H-pyran-4-yl)amino)pyridin-4-yl)oxy)phenyl)amino)-7H-pyrrolo[2,3-d]pyrimidin-5-yl)piperidin-1-yl)prop-2-en-1-one] | > 1000 | 200 to 1000 | 200 to 1000 | > 1000
9 | C=CC(=O)N1CCC(c2n[nH]c3ncnc(Nc4ccc(Oc5ccn(S(=O)(=O)C(C)C)n5)cc4F)c23)CC1 [Compound 183, 1-(4-(4-((2-fluoro-4-((1-(isopropylsulfonyl)-1H-pyrazol-3-yl)oxy)phenyl)amino)-1H-pyrazolo[3,4-d]pyrimidin-3-yl)piperidin-1-yl)prop-2-en-1-one] | 200 to 1000 | 200 to 1000 | 200 to 1000 | > 1000
10 | C=CC(=O)N1CCC(c2n[nH]c3ncnc(Nc4ccc(Oc5nc(-c6cnc(C)c(F)c6)cs5)cc4F)c23)CC1 [Compound 190, 1-[4-[4-[2-fluoro-4-[4-(5-fluoro-6-methyl-3-pyridyl)thiazol-2-yl]oxy-anilino]-1H-pyrazolo[3,4-d]pyrimidin-3-yl]-1-piperidyl]prop-2-en-1-one] | 200 to 1000 | 50 to 200 | 50 to 200 | > 1000
11 | C=CC(=O)N1CCC(c2n[nH]c3ncnc(Nc4ccc(Oc5ccnc(N6C[C@H](OC)[C@H](OC)C6)c5)cc4F)c23)CC1 [Compound 176, 1-(4-(4-((4-((2-((3S,4R)-3,4-dimethoxypyrrolidin-1-yl)pyridin-4-yl)oxy)-2-fluorophenyl)amino)-1H-pyrazolo[3,4-d]pyrimidin-3-yl)piperidin-1-yl)prop-2-en-1-one] | > 1000 | 200 to 1000 | 200 to 1000 | > 1000

Further lines, results first:

Row | GI50 (HCC827 cells) [nM] | GI50 [1] [nM] | GI50 [2] [nM] | GI50 (A431 cells) [nM] | Compound
12 | < 50 | < 50 | < 50 | < 50 | C=CC(=O)N1CCC(c2c[nH]c3ncnc(Nc4ccc(OCc5nccs5)c(Cl)c4)c23)CC1 [Compound 153, 1-(4-(4-((3-chloro-4-(thiazol-2-ylmethoxy)phenyl)amino)-7H-pyrrolo[2,3-d]pyrimidin-5-yl)piperidin-1-yl)prop-2-en-1-one]
13 | < 50 | < 50 | < 50 | < 50 | C=CC(=O)N1CCC(c2c[nH]c3ncnc(Nc4ccc(OCc5cc(C(F)(F)F)ccn5)c(Cl)c4)c23)CC1 [Compound 113, 1-(4-(4-((3-chloro-4-((4-(trifluoromethyl)pyridin-2-yl)methoxy)phenyl)amino)-7H-pyrrolo[2,3-d]pyrimidin-5-yl)piperidin-1-yl)prop-2-en-1-one]
14 | > 1000 | < 50 | < 50 | > 1000 | C=CC(=O)N1CCC(c2c[nH]c3ncnc(Nc4ccc(Oc5ccnc(N6C[C@@H](C)O[C@@H](C)C6)c5)c(Cl)c4F)c23)CC1 [Compound 142, 1-(4-(4-((3-chloro-4-((2-((2S,6R)-2,6-dimethylmorpholino)pyridin-4-yl)oxy)-2-fluorophenyl)amino)-7H-pyrrolo[2,3-d]pyrimidin-5-yl)piperidin-1-yl)prop-2-en-1-one]
15 | > 1000 | 50 to 200 | 200 to 1000 | > 1000 | C=CC(=O)N1CCC(c2c[nH]c3ncnc(Nc4ccc(Oc5ccnc(N6CC7C(C6)C7(F)F)c5)cc4F)c23)CC1 (stereo not shown) [Compound 148, 1-(4-(4-((4-((2-(6,6-difluoro-3-azabicyclo[3.1.0]hexan-3-yl)pyridin-4-yl)oxy)-2-fluorophenyl)amino)-7H-pyrrolo[2,3-d]pyrimidin-5-yl)piperidin-1-yl)prop-2-en-1-one]
16 | 200 to 1000 | 50 to 200 | 50 to 200 | > 1000 | C=CC(=O)N1CCC(c2c[nH]c3ncnc(Nc4ccc(Oc5ccnc(N6CCC(C(F)(F)F)C6)c5)cc4F)c23)CC1 (stereo not shown) [Compound 140, 1-(4-(4-((2-fluoro-4-((2-(3-(trifluoromethyl)pyrrolidin-1-yl)pyridin-4-yl)oxy)phenyl)amino)-7H-pyrrolo[2,3-d]pyrimidin-5-yl)piperidin-1-yl)prop-2-en-1-one]
